Read-outs that look alike come from different tables or passages of the source. Values belong to the compound of their own block, whether it stands above or below them.
Assays:
[1] = tested on: coenzyme independent L-sorbosone dehydrogenase from P. putida ATCC 21812; test: Measurement of the Km value (DCIP/phenazine methosulfate enzyme assay); assay type: biochemical, Pseudomonas putida ATCC 21812; conditions: DCIP and phenazine methosulfate as electron acceptors; 25° C., pH 7.0; read-out: apparent Michaelis constant (Km) for L-sorbosone
Description: In the procedure described under 1) above, the velocities of oxidizing reactions with varying concentrations of L-sorbosone were measured to determine the apparent Michaelis constant (Km) for L-sorbosone. Km value was calculated to be 13±2 mM with DCIP and phenazine methosulfate as electron acceptors.

[2] = tested on: coenzyme independent L-sorbosone dehydrogenase of P. putida ATCC 21812
Description: Enzyme assay was carried out at 25° C. by measuring the decrease of absorbance at 600 nm of DCIP spectrophotometrically. One unit of enzyme activity was defined as the amount of enzyme which catalyzed the reduction of 1 μmole of DCIP per minute. The extinction coefficient of DCIP at pH 7.0 was taken as 9.45 mM^-1.
The basal reaction mixture was prepared by mixing 6 ml of 0.1M potassium phosphate buffer (pH 7.0) containing 0.3% Triton X-100, 0.45 ml of 2.5 mM DCIP and 10.35 ml of water. A cuvette with 1 cm light path contained 0.4 ml of basal reaction mixture, 20 μl of 10 mM phenazine methosulfate, 10 μl of enzyme solution and 20 μl of 110 mM L-sorbosone solution. A reference cuvette contained all the reagents except enzyme solution, but 10 μl of water was added instead. The reaction was started by the addition of the substrate.

[3] = tested on: coenzyme independent L-sorbosone dehydrogenase of P. putida ATCC 21812; test: Effect of addition of PQQ on the enzyme activity; assay type: biochemical, Pseudomonas putida ATCC 21812; conditions: 0 PQQ = 100
Text: Significant increase of the enzyme activity was observed by the addition of PQQ.

SMILES: O=CC(=O)[C@@H](O)[C@H](O)[C@@H](O)CO [L-sorbosone]
Km [1]: 13 ± 2 mM

SMILES: O=C(O)CI [ICH2 COOH, monoiodoacetate]
Relative activity (%) [2]: 88.6%

SMILES: [N-]=[N+]=[N-].[Na+] [NaN3, Sodium azide]
Relative activity (%) ([2]; inhibitor 25.0 mM, None = 100.0): 77.3%

Relative enzyme activity ([3]; PQQ concentration 0.1 (Micro Moles)): 106
Relative enzyme activity ([3]; PQQ concentration 0.2 (Micro Moles), 0.2 µM): 142
Relative enzyme activity ([3]; PQQ concentration 0.5 (Micro Moles), 0.5 µM): 150
Relative enzyme activity ([3]; PQQ concentration 0.9 (Micro Moles), 0.9 µM): 158
Relative enzyme activity ([3]; PQQ concentration 6.0 (Micro Moles), 6 µM): 174
Relative enzyme activity ([3]; PQQ concentration 15.0 (Micro Moles), 15 µM): 192
SMILES: O=C(O)c1cc(C(=O)O)c2c(n1)C(=O)C(=O)c1cc(C(=O)O)[nH]c1-2 [PQQ, pyrroloquinoline quinone]

— patent US5085993A, “Coenzyme-independent L-sorbosone dehydrogenase from Pseudomonas putida” (Hoffmann-La Roche Inc., priority 1987, dated 1992)
